Data on 5 compounds can be found in ChEMBL document CHEMBL1125393, “5-(Aminomethyl)-3-aryldihydrofuran-2(3H)-ones, a new class of monoamine oxidase-B inactivators” (J Med Chem, 1992).

For experiment [1], the target named is T1, Amine oxidase [flavin-containing] B (Bos taurus, UniProt P56560).
T1 sequence (P56560 whole entry): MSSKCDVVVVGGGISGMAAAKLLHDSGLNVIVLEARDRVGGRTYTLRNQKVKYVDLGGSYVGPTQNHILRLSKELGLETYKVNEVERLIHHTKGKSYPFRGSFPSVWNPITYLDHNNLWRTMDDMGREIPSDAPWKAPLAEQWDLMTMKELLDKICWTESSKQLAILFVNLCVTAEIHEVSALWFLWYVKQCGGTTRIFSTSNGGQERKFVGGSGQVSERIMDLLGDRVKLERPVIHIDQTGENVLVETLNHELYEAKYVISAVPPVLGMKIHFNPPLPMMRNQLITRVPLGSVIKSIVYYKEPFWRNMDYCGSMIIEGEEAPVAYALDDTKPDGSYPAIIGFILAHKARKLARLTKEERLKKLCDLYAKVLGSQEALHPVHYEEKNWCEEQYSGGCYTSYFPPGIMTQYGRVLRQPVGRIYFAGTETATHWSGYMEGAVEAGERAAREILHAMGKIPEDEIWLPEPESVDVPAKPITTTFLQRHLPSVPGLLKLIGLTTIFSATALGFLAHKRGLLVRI
Nature of the experiment: Inactivation constant against beef liver mitochondrial monoamine oxidase-B (MAO-B). Particulars: cattle.

Experiment [2] concerns the target T1, Amine oxidase [flavin-containing] B. Description: Inhibitory constant against beef liver mitochondrial monoamine oxidase-B (MAO-B).

As to `COc1ccc(N2CC(CN)OC2=O)cc1` (stereo not given), in experiment [1], the kinact (commonly the maximal first-order rate at which the target is inactivated) was 0.0133 s⁻¹. In addition, the inhibition constant (Ki) (commonly a measure of affinity in units of concentration, obtained from inhibition or displacement) in experiment [2] was found to be 12.5 mM.

Take `NC[C@@H]1C[C@H](c2ccccc2)C(=O)O1`: the kinact in experiment [1] was 0.0428 s⁻¹. The affinity in experiment [2] corresponds to a Ki of 4.2 mM.

Turning to `COc1ccc([C@H]2C[C@@H](CN)OC2=O)cc1`, the inactivation rate constant (kinact) in experiment [1] is 0.074 s⁻¹. In experiment [2], this compound displayed an inhibition constant Ki of 6.67 mM.

As to `NC[C@@H]1C[C@@H](c2ccccc2)C(=O)O1`, the kinact in experiment [1] is 0.0357 s⁻¹. In experiment [2], the Ki amounted to 5.1 mM.

Regarding `COc1ccc([C@@H]2C[C@@H](CN)OC2=O)cc1`, the inactivation rate constant (kinact) in experiment [1] was 0.383 s⁻¹. Further, in experiment [2], affinity was put at a Ki of 18.2 mM.
